Laboratory results: article PMC5691054, “An unexpected protein interaction promotes drug resistance in leukemia” (Nature Communications, 2017)
Entries after “also recorded” stand apart in the source; their conditions may differ. Where no end group is shown, it is not given here. The star is where a group is joined. Biotin = O=C1N[C@H]2[C@H](CS[C@H]2CCCCC(=O)*)N1; FAM = fluorescein

Experiments:
[1] = target: T1, MPP1 and ABCC4 protein interaction (Homo sapiens, UniProt Q00013); test: Competition of ABCC4 C-terminal peptides with MPP1–ABCC4 complex (GST-ABCC4-C100 pull-down, immunoblot); format: biochemical
T1 construct: For full-length expression of MPP1, the pTriX vector containing an N-terminal His tag was used to create the His-S-MPP1 fusion protein; made in house; host or cells: E. coli
T1 sequence (Q00013 1-466): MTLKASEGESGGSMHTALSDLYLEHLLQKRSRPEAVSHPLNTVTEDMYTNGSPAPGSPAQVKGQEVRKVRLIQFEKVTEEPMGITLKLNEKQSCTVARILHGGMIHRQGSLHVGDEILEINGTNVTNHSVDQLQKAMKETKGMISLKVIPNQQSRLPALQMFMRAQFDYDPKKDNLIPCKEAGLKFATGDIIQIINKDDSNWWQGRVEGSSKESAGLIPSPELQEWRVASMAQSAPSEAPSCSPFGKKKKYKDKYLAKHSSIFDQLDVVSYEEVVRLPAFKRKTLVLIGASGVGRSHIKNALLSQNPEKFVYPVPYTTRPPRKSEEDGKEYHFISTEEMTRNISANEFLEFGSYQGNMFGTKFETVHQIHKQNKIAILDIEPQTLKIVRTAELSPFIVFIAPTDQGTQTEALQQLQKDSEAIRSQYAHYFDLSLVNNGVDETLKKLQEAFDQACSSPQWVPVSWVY
Procedure: C-terminal peptides of ABCC4 containing the carboxyl-terminal 15 amino acids ([…]-COOH, ABCC4-PDZ) or carboxyl-terminal 11 amino acids lacking the PDZ-binding motif ([…]-COOH, ABCC4ΔC) conjugated to the cell penetrating peptide TAT ([…]) were chemically synthesized by the Hartwell Center for Bionformatics and Biotechnology at SJCRH. ABCC4 peptides (1–4 μM) were mixed with purified GST-ABCC4-C100 (50 nM) (Supplementary Fig. 10 ) before addition of His-S-MPP1 (3.6 nM) and allowed to mix for 2 h at 24 °C. The GST-ABCC4-C100 was immobilized on glutathione beads, and washed 3 times. Protein complexes were eluted from the beads, separated by SDS-PAGE, and immunoblotted with rabbit anti-MPP1.

[2] = system: ABCC4 plasma membrane localization in HEK293 cells expressing MPP1 and GFP-ABCC4; test: ABCC4 plasma membrane localization (confocal microscopy); format: cell-based, Human
Procedure: Peptides containing or lacking the ABCC4-PDZ motif were fused with the cell penetrating HIV-TAT peptide. These peptides were tested for their effect on ABCC4 plasma membrane localization. HEK293 cells were transfected with MPP1 and GFP-ABCC4 and the ER protein, calreticulin. The plasma membrane was counter-stained with wheat-germ-agglutinin (WGA) labeled with Alexa647 after treatment with either ABCC4-PDZ or ABCC4ΔC peptide.
HEK293 cells were seeded on chambered coverglass slides (LAB-TEK) 48 h before transfection with plasmid DNA (250 ng) encoding pAc-GFP-ABCC4 or ABCC4ΔC and pCal plasmid encoding the ER resident protein calreticulin conjugated to RFP (Origene). Transfection was performed using Lipofectamine 2000 as per the manufacturer’s instructions. Immediately prior to visualizing cells, cells were counterstained with the plasma membrane marker wheat-germ agglutinin (WGA) conjugated to Alexa-647 (Invitrogen). All confocal microscopy images were acquired on a 3i Marianas system configured with an Yokagowa CSU-X spinning disk confocal microscope utilizing a ×63 Zeiss objective, using the 488 (GFP), 561 (RFP), and 660 (far red) laser lines.

HEK293 cells = test: 6MP cytotoxicity / drug resistance in transfected HEK293 cells; format: cell-based, Human; settings: HEK293 co-expressing ABCC4 and MPP1; cell penetrating peptide (20 μM in methods; various amounts), 96 h, in words
Procedure: HEK293 cells transfected with ABCC4 or ABCC4ΔC in the presence or absence of MPP1, MO7e, and Meg01 cells were treated with 10 concentrations of 6MP, ranging from 1 to 1000 µM, for 96 h. Cell viability analysis was determined using CellTiter Glo (Promega). Where applicable, cell penetrating peptides conjugated to the PDZ-binding motif of ABCC4 (labeled either ABCC4-PDZ or ABCC4ΔC) were added to the cells at 20 μM. Media was changed daily and new ABCC4-PDZ/ABCC4ΔC peptide and 6MP was added. IC50 values were calculated using GraphPad Prism.

MO7e cells [3] = test: Cytarabine cytotoxicity in MO7e cells; format: cell-based, Human; settings: in words
Procedure: MO7e cells were seeded at 1500 cells per well of a 96-well plate. Cells were then treated with Cytarabine at increasing concentrations ranging from 0.5 to 500 μM for 4 h in serum-free media. Cells were washed three times with PBS and replaced with fresh complete media for 68 h. Cell viability analysis was determined using CellTiter Glo. Where applicable, cells were treated with 10 nM Antimycin A. IC50 values were calculated using GraphPad Prism.

[4] = system: murine hematopoietic progenitor cells (HPC)
MO7e cells [5] = test: 6MP cytotoxicity in MO7e cells and CRISPR knock-outs; format: cell-based, Human
[6] = system: murine hematopoietic progenitor cells (HPC); test: Hematopoietic progenitor cell serial replating in methylcellulose; settings: HPC transduced with MPP1; cell penetrating peptide, fresh at each replating; n = 3
[7] = target: T2, MPP1, endogenous in MO7e cells (human (endogenous in MO7e), UniProt Q00013 1-466); test: cell-based or functional assay
T2 sequence (looked up): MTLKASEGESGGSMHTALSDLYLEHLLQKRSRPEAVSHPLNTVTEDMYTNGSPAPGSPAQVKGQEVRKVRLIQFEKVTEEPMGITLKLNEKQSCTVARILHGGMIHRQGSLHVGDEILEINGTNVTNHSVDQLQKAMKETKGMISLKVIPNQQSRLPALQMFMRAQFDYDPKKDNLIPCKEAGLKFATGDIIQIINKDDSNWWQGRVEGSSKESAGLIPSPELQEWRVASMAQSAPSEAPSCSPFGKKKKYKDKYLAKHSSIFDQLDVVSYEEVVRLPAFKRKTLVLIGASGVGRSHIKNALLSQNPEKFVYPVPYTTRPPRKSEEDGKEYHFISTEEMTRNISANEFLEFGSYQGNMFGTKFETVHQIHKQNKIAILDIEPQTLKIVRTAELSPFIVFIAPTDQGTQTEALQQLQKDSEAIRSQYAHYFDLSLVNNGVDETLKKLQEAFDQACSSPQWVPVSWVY

[8] = target: T3, His-S-MPP1 fusion protein (full-length MPP1) (UniProt Q00013 1-466); test: pull-down; competition: TAT-ABCC4 peptides (1–4 μM) mixed with GST-ABCC4-C100 (50 nM) before addition of His-S-MPP1 (3.6 nM), 2 h at 24 °C; GST-ABCC4-C100 immobilized on glutathione beads, washed 3 times; immunoblot with rabbit anti-MPP1; settings: both partners purified
T3 construct: MPP1 (p55), full length, expressed from the pTriX vector; the fragments of the same protein are numbered up to amino acid 466; also called purified MPP1; source: E. coli, purified (nickel column); not shown: His tag, N-terminal, kept
T3 sequence (looked up): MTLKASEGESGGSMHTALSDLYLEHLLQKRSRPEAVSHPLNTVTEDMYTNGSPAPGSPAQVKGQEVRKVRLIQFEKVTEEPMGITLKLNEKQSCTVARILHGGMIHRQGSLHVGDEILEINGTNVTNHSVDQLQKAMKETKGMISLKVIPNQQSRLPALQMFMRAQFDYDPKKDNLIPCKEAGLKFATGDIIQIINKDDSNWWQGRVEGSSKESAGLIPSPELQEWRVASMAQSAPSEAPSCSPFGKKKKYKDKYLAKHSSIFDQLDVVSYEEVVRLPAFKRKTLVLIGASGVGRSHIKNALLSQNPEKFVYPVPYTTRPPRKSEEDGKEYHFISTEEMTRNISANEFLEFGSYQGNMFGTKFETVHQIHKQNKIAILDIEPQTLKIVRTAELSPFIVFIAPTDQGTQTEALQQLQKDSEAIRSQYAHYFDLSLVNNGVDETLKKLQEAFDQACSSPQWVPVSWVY

[9] = target: T3, His-S-MPP1 fusion protein (full-length …); test: fluorescence polarisation; 100 nM FAM-ABCC4 incubated with various concentrations of full-length MPP1; estimated constant; settings: both partners purified
[10] = target: T3, His-S-MPP1 fusion protein (full-length …); test: FRET or BRET; TR-FRET: various concentrations of B-ABCC4 with 5 nM Tb-anti-His, 50 nM AF488-streptavidin and 5 nM His-S-MPP1 in DPBS, 0.01% BSA, 1 mM DTT, 0.5% DMSO; one site total binding fit; settings: both partners purified

SNGQPSTLTIFETAL-OH [ABCC4-PDZ, carboxyl-terminal 15 amino acids of ABCC4 conjugated to the cell penetrating peptide TAT]
disruption of the MPP1 and ABCC4 protein interaction ([1]; in words, in vitro competition experiment): potently disrupted complex formation
greater affinity of MPP1 for ABCC4 vs. glycophorin c ([1]; suggested by the IC50 of ~300 nM): 15 fold
transfected cells exhibiting loss of ABCC4 at the plasma membrane ([2]; cell penetrating peptide (TAT fused; 10 μM in Supplementary Fig. 4), n = 20 fields of view): over 90%
effect on ABCC4 plasma membrane localization ([2]; in words, confocal microscopy): reduced the ABCC4 plasma membrane localization
effect of peptide on 6MP IC50 (HEK293 cells): dose-dependently suppressed the IC50 of 6MP with the highest dose almost completely reversing the salutary effect of MPP1
effect of peptide on cytarabine sensitivity (MO7e cells [3]; MO7e lacking ABCC4): no additional sensitivity to cytarabine
effect of peptide on cytarabine sensitivity (MO7e cells [3]; MO7e, cytarabine 0.5–500 μM 4 h, then 68 h): sensitized to cytarabine cytotoxicity; also recorded: specifically sensitized MO7e cells to cytarabine
effect of co-treatment on IC50 for cytarabine (MO7e cells [3]; peer review file): reduce the IC50 for cytarabine
toxicity to normal hematopoietic progenitors [4]: not toxic to normal
effect of peptide on 6MP sensitivity (MO7e cells [5]; cell permeable peptide (10 μM), in words): sensitizes MO7e cells to 6MP
reduction of 6MP IC50 by peptide (MO7e cells [5]; cell permeable peptide (10 μM, Supplementary Fig. 5c)): 2.6 fold
effect on MPP1-driven methylcellulose replating [6]: suppressed methylcellulose replating

B1: ABCC4, endogenous in MO7e cells (natural protein, human (endogenous in MO7e), UniProt O15439 1-1325, looked up)
chain: MLPVYQEVKPNPLQDANLCSRVFFWWLNPLFKIGHKRRLEEDDMYSVLPEDRSQHLGEELQGFWDKEVLRAENDAQKPSLTRAIIKCYWKSYLVLGIFTLIEESAKVIQPIFLGKIINYFENYDPMDSVALNTAYAYATVLTFCTLILAILHHLYFYHVQCAGMRLRVAMCHMIYRKALRLSNMAMGKTTTGQIVNLLSNDVNKFDQVTVFLHFLWAGPLQAIAVTALLWMEIGISCLAGMAVLIILLPLQSCFGKLFSSLRSKTATFTDARIRTMNEVITGIRIIKMYAWEKSFSNLITNLRKKEISKILRSSCLRGMNLASFFSASKIIVFVTFTTYVLLGSVITASRVFVAVTLYGAVRLTVTLFFPSAIERVSEAIVSIRRIQTFLLLDEISQRNRQLPSDGKKMVHVQDFTAFWDKASETPTLQGLSFTVRPGELLAVVGPVGAGKSSLLSAVLGELAPSHGLVSVHGRIAYVSQQPWVFSGTLRSNILFGKKYEKERYEKVIKACALKKDLQLLEDGDLTVIGDRGTTLSGGQKARVNLARAVYQDADIYLLDDPLSAVDAEVSRHLFELCICQILHEKITILVTHQLQYLKAASQILILKDGKMVQKGTYTEFLKSGIDFGSLLKKDNEESEQPPVPGTPTLRNRTFSESSVWSQQSSRPSLKDGALESQDTENVPVTLSEENRSEGKVGFQAYKNYFRAGAHWIVFIFLILLNTAAQVAYVLQDWWLSYWANKQSMLNVTVNGGGNVTEKLDLNWYLGIYSGLTVATVLFGIARSLLVFYVLVNSSQTLHNKMFESILKAPVLFFDRNPIGRILNRFSKDIGHLDDLLPLTFLDFIQTLLQVVGVVSVAVAVIPWIAIPLVPLGIIFIFLRRYFLETSRDVKRLESTTRSPVFSHLSSSLQGLWTIRAYKAEERCQELFDAHQDLHSEAWFLFLTTSRWFAVRLDAICAMFVIIVAFGSLILAKTLDAGQVGLALSYALTLMGMFQWCVRQSAEVENMMISVERVIEYTDLEKEAPWEYQKRPPPAWPHEGVIIFDNVNFMYSPGGPLVLKHLTALIKSQEKVGIVGRTGAGKSSLISALFRLSEPEGKIWIDKILTTEIGLHDLRKKMSIIPQEPVLFTGTMRKNLDPFNEHTDEELWNALQEVQLKETIEDLPGKMDTELAESGSNFSVGQRQLVCLARAILRKNQILIIDEATANVDPRTDELIQKKIREKFAHCTVLTIAHRLNTIIDSDKIMVLDSGRLKEYDEPYVLLQNKESLFYKMVQQLGKAEAAALTETAKQVYFKRNYPHIGHTDHMVTNTSNGQPSTLTIFETAL
IC50 of 6MP in MO7e cells with the C-terminal ABCC4 peptide [7]: 2.6 fold

B2: ABCC4-PDZ peptide (carboxyl-terminal 15 amino acids of ABCC4) conjugated to the cell penetrating peptide TAT (peptide)
peptide: YGRKKRRQRRRSNGQPSTLTIFETAL
notes: cell penetrating HIV-TAT peptide; ABCC4, human, carboxyl-terminal 15 amino acids with the PDZ motif ETAL, free COOH; also called cell penetrating ABCC4-PDZ peptide; source: synthetic peptide
IC50 [8]: ~300 nM

B3: Fluorescein-conjugated C-terminal peptide of ABCC4 (FAM-TIFETAL-COOH) (peptide)
peptide: {FAM}-TIFETAL-OH
notes: ABCC4, human, C-terminal 7 amino acids with the PDZ motif ETAL; also called FAM-ABCC4; fluorescein-labeled ABCC4-PDZ motif peptide; source: synthetic peptide
Kd [9]: ~600 nM

B4: Biotinylated C-terminal ABCC4 peptide (biotin-[residues removed]-COOH) (peptide)
peptide: Biotin-GHTDHMVTNTSNGQPSTLTIFETAL-OH
modifications: not fully specified; printed as biotin-GHTDHMVTNTSNGQPSTLTIFETAL-COOH
notes: ABCC4, human, C-terminal 25 amino acids with the PDZ motif ETAL; Detected through Alexa Fluor 488 streptavidin in the TR-FRET assay; also called B-ABCC4; ABCC4-PDZ peptide; source: synthetic peptide
Kd [10]: ~511 nM
